From patent publication US20060263802A1 (priority 2003, published 2006)

Key:
Format in all cases: binding
[1] = system: human monoclonal antibody CR57
[2] = system: human monoclonal antibody CRJA
[3] = system: human monoclonal antibody CRJB
[4] = system: human monoclonal antibody CR57; remark: listed apart in the source
[5] = system: human monoclonal antibody CRJA; remark: listed apart in the source
[6] = system: human monoclonal antibody CRJB; remark: listed apart in the source

Row | Sequence | Binding of CR57 (10 μg/ml) to looped/cyclic peptide (PEPSCAN-ELISA) [1] | Binding of CRJA (10 μg/ml) to looped/cyclic peptide (PEPSCAN-ELISA) [2] | Binding of CRJB to linear peptide (PEPSCAN-ELISA signal) [3] | Binding of CR57 to linear peptide (PEPSCAN-ELISA signal) [4] | Binding of CRJA to linear peptide (PEPSCAN-ELISA signal) [5] | Binding of CRJB (10 μg/ml) to looped/cyclic peptide (PEPSCAN-ELISA) [6] | Binding of CR57 (10 μg/ml) to looped/cyclic peptide (PEPSCAN-ELISA signal) [1] | Binding of CRJA (10 μg/ml) to looped/cyclic peptide (PEPSCAN-ELISA signal) [2] | Binding of CRJB (10 μg/ml) to looped/cyclic peptide (PEPSCAN-ELISA signal) [6] | Binding of CR57 to looped/cyclic peptide (PEPSCAN-ELISA signal) [1] | Binding of CRJA to looped/cyclic peptide (PEPSCAN-ELISA signal) [2] | Binding of human monoclonal antibody CRJB to linear peptide (PEPSCAN-ELISA signal) [3] | Binding of human monoclonal antibody CR57 to linear peptide (PEPSCAN-ELISA signal) [4] | Binding of human monoclonal antibody CRJA to linear peptide (PEPSCAN-ELISA signal) [5] | Binding of CRJB to looped/cyclic peptide (PEPSCAN-ELISA signal) [6]
1 | TWNEILPSKGCLRVG | 132 | 127 | 146 | 97 | 93 | 113 | – | – | – | – | – | – | – | – | –
2 | TWVAMQTSNETKWCP | 87 | 84 | 118 | 78 | 100 | 89 | – | – | – | – | – | – | – | – | –
3 | TYCSTNHDYTIWMPE | – | – | 107 | 96 | 87 | – | 104 | 97 | 93 | – | – | – | – | – | –
4 | VADLDPYDRSLHSRV | – | – | 113 | 71 | 92 | – | 85 | 89 | 74 | – | – | – | – | – | –
5 | VAMQTSNETKWCPPD | 45 | 90 | 104 | 86 | 97 | 66 | – | – | – | – | – | – | – | – | –
6 | VAVSSTYCSTNHDYT | – | – | 114 | 85 | 106 | – | 103 | 88 | 83 | – | – | – | – | – | –
7 | VDERGLYKSLKGACK | 105 | 96 | 108 | 50 | 82 | 80 | – | – | – | – | – | – | – | – | –
8 | VEDEGCTNLSGFSYM | – | – | 103 | 74 | 82 | – | 83 | 86 | 78 | – | – | – | – | – | –
9 | VEELVRKREECLDAL | 55 | 69 | 111 | 58 | 84 | 27 | – | – | – | – | – | – | – | – | –
10 | VEVHLPDVHNQVSGV | – | – | – | – | – | – | – | – | – | 138 | 120 | 141 | 106 | 117 | 104
11 | VFFNGIILGPDGNVL | 110 | 83 | 132 | 55 | 82 | 93 | – | – | – | – | – | – | – | – | –
12 | VFKDGDEAEDFVEVH | – | – | – | – | – | – | – | – | – | 168 | 104 | 106 | 100 | 125 | 125
13 | VFPSGKCSGVAVSST | – | – | 114 | 74 | 68 | – | 79 | 55 | 75 | – | – | – | – | – | –
14 | VGGRCHPHVNGVFFN | 143 | 106 | 136 | 120 | 92 | 64 | – | – | – | – | – | – | – | – | –
15 | VGYILAIKMNGFTCT | – | – | 93 | 77 | 70 | – | 97 | 105 | 86 | – | – | – | – | – | –
16 | VGYVTTTFKRKHFRP | – | – | 113 | 75 | 80 | – | 117 | 100 | 85 | – | – | – | – | – | –
17 | VHLPDVHNQVSGVDL | – | – | – | – | – | – | – | – | – | 105 | 92 | 114 | 110 | 104 | 94
18 | VHNQVSGVDLGLPNW | – | – | – | – | – | – | – | – | – | 125 | 106 | 119 | 100 | 120 | 106
19 | VHPLADPSTVFKDGD | – | – | – | – | – | – | – | – | – | 107 | 99 | 138 | 98 | 111 | 79
20 | VIISPSVADLDPYDR | – | – | 98 | 59 | 47 | – | 90 | 100 | 82 | – | – | – | – | – | –
21 | VIPLVHPLADPSTVF | 77 | 84 | 141 | 69 | 92 | 92 | – | – | – | – | – | – | – | – | –
22 | VKTTKESLVIISPSV | – | – | 120 | 71 | 96 | – | 98 | 100 | 92 | – | – | – | – | – | –
23 | VLGLRLMDGTWVAMQ | 94 | 108 | 141 | 90 | 107 | 106 | – | – | – | – | – | – | – | – | –
24 | VLIPEMQSSLLQQHM | 114 | 92 | 104 | 92 | 78 | 85 | – | – | – | – | – | – | – | – | –
25 | VNGVFFNGIILGPDG | 90 | 78 | 116 | 68 | 94 | 96 | – | – | – | – | – | – | – | – | –
26 | VNLHDFRSDEIEHLV | 97 | 84 | 129 | 83 | 103 | 56 | – | – | – | – | – | – | – | – | –
27 | VPGFGKAYTIFNKTL | 74 | 87 | 114 | 58 | 96 | 42 | – | – | – | – | – | – | – | – | –
28 | VRKREECLDALESIM | 105 | 101 | 181 | 58 | 111 | 66 | – | – | – | – | – | – | – | – | –
29 | VRTWNEILPSKGCLR | 121 | 114 | 124 | 90 | 105 | 98 | – | – | – | – | – | – | – | – | –
30 | VSFRRLSHLRKLVPG | 141 | 99 | 111 | 90 | 55 | 94 | – | – | – | – | – | – | – | – | –
